From the NIST ThermoML archive (doi:10.1016/j.jct.2016.02.016)
Numbers after ± are expanded uncertainties.

What was measured:
[1] = xn = mol fraction of the nth substance listed; conditions: 303.15 K, 100 kPa, Liquid; for speed of sound: Frequency=3 MHz, Sing-around technique in a fixed-path interferometer; for mass density: Vibrating tube method
[2] = refractive index (Na D-line) (dimensionless); xn = mol fraction of the nth substance listed; conditions: 100 kPa, Liquid, Standard Abbe refractometry

CC(C)=O [acetone] + CN(C)C=O
[1]
Conditions | mass density [kg/m3] | speed of sound [m/s]
x2 = 0 | 778.63 ± 1.9 | 1139.9 ± 1.1
x2 = 0.0571 | 789.325 ± 1.9 | 1159 ± 1.2
x2 = 0.1075 | 798.734 ± 1.9 | 1175.8 ± 1.3
x2 = 0.148 | 805.999 ± 2 | 1188.9 ± 1.3
x2 = 0.2001 | 815.316 ± 2 | 1205.7 ± 1.3
x2 = 0.2528 | 824.518 ± 2 | 1222.4 ± 1.3
x2 = 0.3003 | 832.657 ± 2 | 1237.3 ± 1.3
x2 = 0.3487 | 840.866 ± 2 | 1252.5 ± 1.3
x2 = 0.392 | 848.12 ± 2.1 | 1265.8 ± 1.3
x2 = 0.4547 | 858.369 ± 2.1 | 1284.8 ± 1.3
x2 = 0.4991 | 865.505 ± 2.1 | 1298.1 ± 1.4
x2 = 0.5422 | 872.357 ± 2.1 | 1310.9 ± 1.4
x2 = 0.6046 | 882.041 ± 2.1 | 1329.2 ± 1.4
x2 = 0.6507 | 889.133 ± 2.1 | 1342.6 ± 1.4
x2 = 0.6986 | 896.27 ± 2.2 | 1356.3 ± 1.4
x2 = 0.7493 | 903.843 ± 2.2 | 1370.7 ± 1.4
x2 = 0.7975 | 910.848 ± 2.2 | 1384.2 ± 1.4
x2 = 0.8442 | 917.613 ± 2.2 | 1397.1 ± 1.4
x2 = 0.8972 | 925.06 ± 2.2 | 1411.5 ± 1.5
x2 = 0.9411 | 931.137 ± 2.2 | 1423.4 ± 1.5

refractive index, [2]
Conditions | 293.15 K | 298.15 K
x2 = 0 | 1.35845 ± 0.0041 | 1.35386 ± 0.0041
x2 = 0.05 | – | 1.35901 ± 0.0041
x2 = 0.0503 | 1.36286 ± 0.0041 | –
x2 = 0.1057 | 1.3677 ± 0.0041 | –
x2 = 0.127 | – | 1.3664 ± 0.0041
x2 = 0.1485 | – | 1.36834 ± 0.0041
x2 = 0.1529 | 1.37155 ± 0.0041 | –
x2 = 0.1908 | – | 1.37223 ± 0.0041
x2 = 0.1992 | 1.37532 ± 0.0041 | –
x2 = 0.2475 | 1.37922 ± 0.0042 | –
x2 = 0.2492 | – | 1.37711 ± 0.0041
x2 = 0.297 | – | 1.38103 ± 0.0042
x2 = 0.2981 | 1.38311 ± 0.0042 | –
x2 = 0.3399 | – | 1.38441 ± 0.0042
x2 = 0.3458 | 1.38685 ± 0.0042 | –
x2 = 0.3942 | 1.3905 ± 0.0042 | –
x2 = 0.3997 | – | 1.38893 ± 0.0042
x2 = 0.4461 | – | 1.39235 ± 0.0042
x2 = 0.4516 | 1.39472 ± 0.0042 | –
x2 = 0.4973 | 1.398 ± 0.0042 | –
x2 = 0.4978 | – | 1.39595 ± 0.0042
x2 = 0.5476 | 1.40156 ± 0.0042 | –
x2 = 0.549 | – | 1.39951 ± 0.0042
x2 = 0.5893 | – | 1.40233 ± 0.0042
x2 = 0.599 | 1.40511 ± 0.0042 | –
x2 = 0.6413 | – | 1.40581 ± 0.0042
x2 = 0.6521 | 1.40867 ± 0.0042 | –
x2 = 0.6822 | – | 1.40851 ± 0.0042
x2 = 0.7051 | 1.41226 ± 0.0043 | –
x2 = 0.7435 | – | 1.41236 ± 0.0043
x2 = 0.7538 | 1.41537 ± 0.0043 | –
x2 = 0.7945 | – | 1.41552 ± 0.0043
x2 = 0.8063 | 1.41877 ± 0.0043 | –
x2 = 0.8342 | – | 1.41805 ± 0.0043
x2 = 0.8441 | 1.42113 ± 0.0043 | –
x2 = 0.8801 | – | 1.4209 ± 0.0043
x2 = 0.9022 | 1.42474 ± 0.0043 | –
x2 = 0.9377 | – | 1.42451 ± 0.0043
x2 = 0.9471 | 1.42742 ± 0.0043 | –
